Assay results: patent publication US20240076347A1, “METHODS FOR PREVENTING FUNGAL INFECTIONS” (Cidara Therapeutics, Inc., priority 2016, published 2024)
Values joined by “and” are separate entries in the source; they are usually repeats but may differ in a detail not shown here. Equal entries are not always repeated. Numbered stars: 1 amine (or outer) side, 2 acyl side, 3 side chain; on linkers, the order of the positions; unused ones are H or OH. Bridge positions count the residues as written; N and C are the ends. Square brackets hold non-standard residues; d marks the D form. Peptide text beside a SMILES is read from it. * marks the point of attachment. ξ: configuration not given here. Orn(4R-OH,5R-OCH2CH2NMe3+) = C[N+](C)(C)CCO[C@@H](N[*:3])[C@H](O)C[C@H](N[*:1])C(=O)[*:2]; pTerphenylCO(4''-OnC5H11) = CCCCCOc1ccc(-c2ccc(-c3ccc(C(=O)*)cc3)cc2)cc1; hTyr(3S-OH,4S-OH) = N[C@H](C(=O)O)[C@H](O)[C@@H](O)c1ccc(O)cc1; X1 = C[C@H]1CN([*:1])C(C(=O)[*:2])C1O; Hyp = O=C(O)[C@@H]1C[C@@H](O)CN1; ξT = CC(O)C(N)C(=O)O

Tests used:
Candida auris = assay: Murine model of disseminated candidiasis (immunosuppressed CD-1 mice), treatment; format: in vivo; conditions: 20 mg/kg IP
Method: Female 6-8 week old CD-1 mice were immunosuppressed with cyclophosphamide (200 mg/kg) 3 days prior to infection and 150 mg/kg 1 day post-infection. On the day of infection, mice were inoculated with 3×10^7 C. auris blastospores via the lateral tail vein. Mice were randomized into 5 groups (n=5 for colony forming units (CFU) and n=10 for survival): CD101 20 mg/kg administered by intraperitoneal (IP) injection, fluconazole 20 mg/kg administered per os (PO), amphotericin B 0.3 mg/kg IP, and a vehicle control. Treatments were administered 2 hours post-infection (Day 1) and again on Day 4 of the study for a total of 2 doses. Mice were monitored daily and a survival curve was generated. CFU groups were sacrificed on Day 8 of the study. One kidney was removed from each mouse, homogenized, plated on potato dextrose agar (PDA), and incubated at 35° C. for 2 days to determine CFU. The remaining survival mice were monitored until the end of the study (Day 14).

C. albicans = assay: Neutropenic murine disseminated candidiasis model, PK/PD target determination; format: in vivo, Candida albicans
Method: Infection model. A neutropenic, murine, disseminated candidiasis model was used for the treatment studies. The mice were rendered neutropenic (polymorphonuclear cell count, <100/mm3) by injecting 150 mg/kg of cyclophosphamide (Mead Johnson Pharmaceuticals, Evansville, IN) subcutaneously 4 days before infection, 100 mg/kg of cyclophosphamide 1 day before infection, and additional cyclophosphamide doses (100 mg/kg) on Day 2 and Day 4 after infection to ensure neutropenia throughout the 168 h (7 d) study period. Three mice were included in each treatment and control group.
The organisms were subcultured on SDA plates 24 h prior to infection. The inoculum was prepared by placing 3 to 5 colonies into 5 ml of sterile pyrogen-free 0.15 M NaCl warmed to 35° C. The final inoculum was adjusted to a 0.6 transmittance at 530 nm. The fungal count of the inoculum determined by viable counts on SDA was 6.1±0.2 log10 CFU/ml.
Disseminated infection with the Candida strains was achieved by injection of 0.1 ml of the inoculum via the lateral tail vein 2 h prior to the start of antifungal therapy. At the end of the study period, the animals were sacrificed by CO2 asphyxiation. The kidneys of each mouse were aseptically removed and placed in 0.15 M NaCl at 4° C. The kidneys were homogenized and serially diluted 1:10, and the aliquots were plated onto SDA for viable fungal colony counts after incubation for 24 h at 35° C. The lower limit of detection was 100 CFU/ml. The results are expressed as the mean CFU/kidney for three mice.
Treatment efficacy and pharmacodynamic target determination of CD101. Neutropenic mice were infected with one of 10 Candida strains as described above. […] Five dose levels that varied from 0.25 to 64 mg/kg were administered once in a 0.2-ml volume by IP route for the 168 h study period. Due to enhanced effect against single isolate, additional studies at 0.0156 and 0.0625 mg/kg was examined for C. glabrata 5592. Groups of three mice were used for each dosing regimen and control group. At the end of the treatment period (168 h), the mice were euthanized, and their kidneys were immediately processed for CFU determination as described above.
Data analysis. A sigmoid dose-effect (Hill) model was used to measure the in vivo potency of CD101. The efficacy endpoints included the dose level required to produce a 24 h net static effect (no change in organism burden compared to that at the start of therapy) and the dose required to achieve a 1-log10 reduction in colony counts (relative to the burden at the start of therapy), when achieved. The maximum response (Emax) was measured as the difference in the number of CFU/kidney relative to that of the untreated control animals. The doses associated with the stasis and 1-log10 endpoint for each strain was calculated using the equation: log10 D=[log10 (E/(Emax−E))/N]+log10 ED50, where D is the drug dose, E is the control growth in untreated animals, Emax is the maximal effect, Nis the slope of the dose-response relationship, and ED50 is the dose needed to achieve 50% of the maximal effect. The associated AUC/MIC targets were then calculated for each strain. […] The calculations were performed using both total and free drug concentrations. The coefficient of determination (R^2) was used to estimate the variance that might be due to regression with the PK/PD index. Kruskal-Wallis one-way analysis of variance (ANOVA) was used to determine if the differences in PK/PD targets were significant between the species.

[1] = Median of 4 C. albicans strains

CCCCCOc1ccc(-c2ccc(-c3ccc(C(=O)N[C@H]4C[C@@H](O)[C@@H](OCC[N+](C)(C)C)NC(=O)C5C(O)[C@@H](C)CN5C(=O)[C@H]([C@@H](C)O)NC(=O)[C@H]([C@H](O)[C@@H](O)c5ccc(O)cc5)NC(=O)[C@@H]5C[C@@H](O)CN5C(=O)C(C(C)O)NC4=O)cc3)cc2)cc1 (stereo partly drawn) [CD101] ({pTerphenylCO(4''-OnC5H11)}-[Orn(4R-OH,5R-OCH2CH2NMe3+)][ξT][Hyp][hTyr(3S-OH,4S-OH)]T[X1]; lactam 1-C)
average reduction in kidney CFU (Candida auris; 2 doses (Day 1, Day 4), Day 8, compared to fluconazole, amphotericin B and vehicle groups): 3 log | percent survival at the end of the study (Candida auris; 2 doses, Day 14): 80% | 1 log kill 24 h Ave Free drug AUC/MIC (C. albicans; 98-17): 3.92 | 1 log kill free drug AUC0-168 h/MIC (C. albicans; 98-17): 27.47 | 1 log kill total drug AUC0-168 h/MIC (C. albicans; 98-17): 3433.40 | Stasis 24 h Ave free drug AUC/MIC (C. albicans; 98-17): 2.19 | Stasis free drug AUC0-168 h/MIC (C. albicans; 98-17): 15.35 | Stasis total drug AUC0-168 h/MIC (C. albicans; 98-17): 1918.43 | 1 log kill dose (C. albicans; 98-17, single IP dose, 168 h): 2.73 mg/kg | Static dose (C. albicans; 98-17, single IP dose, 168 h): 1.34 mg/kg | 1 log kill 24 h Ave Free drug AUC/MIC (C. albicans; 98-210): 6.72 | 1 log kill free drug AUC0-168 h/MIC (C. albicans; 98-210): 47.01 | 1 log kill total drug AUC0-168 h/MIC (C. albicans; 98-210): 5875.95 | Stasis 24 h Ave free drug AUC/MIC (C. albicans; 98-210): 3.70 | Stasis free drug AUC0-168 h/MIC (C. albicans; 98-210): 25.93 | Stasis total drug AUC0-168 h/MIC (C. albicans; 98-210): 3241.65 | 1 log kill dose (C. albicans; 98-210, single IP dose, 168 h): 2.28 mg/kg | Static dose (C. albicans; 98-210, single IP dose, 168 h): 1.06 mg/kg | 1 log kill 24 h Ave Free drug AUC/MIC (C. albicans; 580): 3.05 | 1 log kill free drug AUC0-168 h/MIC (C. albicans; 580): 21.34 | 1 log kill total drug AUC0-168 h/MIC (C. albicans; 580): 2667.21 | Stasis 24 h Ave free drug AUC/MIC (C. albicans; 580): 2.02 | Stasis free drug AUC0-168 h/MIC (C. albicans; 580): 14.15 | Stasis total drug AUC0-168 h/MIC (C. albicans; 580): 1769.30 | 1 log kill dose (C. albicans; 580, single IP dose, 168 h): 2.03 mg/kg | Static dose (C. albicans; 580, single IP dose, 168 h): 1.20 mg/kg | 1 log kill 24 h Ave Free drug AUC/MIC (C. albicans; K-1): 6.86 | 1 log kill free drug AUC0-168 h/MIC (C. albicans; K-1): 48.05 | 1 log kill total drug AUC0-168 h/MIC (C. albicans; K-1): 6005.95 | Stasis 24 h Ave free drug AUC/MIC (C. albicans; K-1): 3.65 | Stasis free drug AUC0-168 h/MIC (C. albicans; K-1): 25.58 | Stasis total drug AUC0-168 h/MIC (C. albicans; K-1): 3197.16 | 1 log kill dose (C. albicans; K-1, single IP dose, 168 h): 5.26 mg/kg | Static dose (C. albicans; K-1, single IP dose, 168 h): 2.52 mg/kg | 1 log kill 24 h Ave Free drug AUC/MIC (C. albicans; Mean of 4 C. albicans strains): 5.14 | 1 log kill dose (C. albicans; Mean of 4 C. albicans strains): 3.08 mg/kg | 1 log kill free drug AUC0-168 h/MIC (C. albicans; Mean of 4 C. albicans strains): 35.97 | 1 log kill total drug AUC0-168 h/MIC (C. albicans; Mean of 4 C. albicans strains): 4495.63 | Stasis 24 h Ave free drug AUC/MIC (C. albicans; Mean of 4 C. albicans strains): 2.89 | Stasis free drug AUC0-168 h/MIC (C. albicans; Mean of 4 C. albicans strains): 20.25 | Stasis total drug AUC0-168 h/MIC (C. albicans; Mean of 4 C. albicans strains): 2531.64 | Static dose (C. albicans; Mean of 4 C. albicans strains): 1.53 mg/kg | 1 log kill 24 h Ave Free drug AUC/MIC (C. albicans; [1]): 5.32 | 1 log kill dose (C. albicans; [1]): 2.51 mg/kg | 1 log kill free drug AUC0-168 h/MIC (C. albicans; [1]): 37.24 | 1 log kill total drug AUC0-168 h/MIC (C. albicans; [1]): 4654.68 | Stasis 24 h Ave free drug AUC/MIC (C. albicans; [1]): 2.92 | Stasis free drug AUC0-168 h/MIC (C. albicans; [1]): 20.5 and 20.46 | Stasis total drug AUC0-168 h/MIC (C. albicans; [1]): 2557.79 | Static dose (C. albicans; [1]): 1.27 mg/kg | kill at high doses (C. albicans; a number of strains, kidney burden, 168 h): > 2 log10
